Experimental data: patent US5622947A, “Benzoheterocyclic compounds and vasopressin antagonist and oxytocin antagonist compositions containing a benzoheterocyclic compound” (Otsuka Pharmaceutical Co., Ltd., priority 1992, dated 1997)
Counter-ions that a name gives are not always drawn.

What was measured:
[1] = target: T1, V2 Recepter (rat kidney plasma membrane preparations) (Rattus norvegicus, UniProt Q00788); assay: V2 Recepter binding assay; settings: [3H]-Arg-vasopressin 4×10^-10 M, 4° C., pH 8.0, rat kidney plasma membrane
T1 construct: rat kidney plasma membrane preparations; from tissue; host or cells: rat kidney plasma membranes
Experimental: Test 2: V2 Recepter binding assay
By using rat kidney plasma membrane preparations prepared according to Hechter's method [by O. Hechter: J. Bio. Chem., 2.53, 3211 (1978)], the plasma membrane (100,000 dpm, 4×10^-10 M) of [^3 H]-Arg-vasopressin and a test compound (0.6 mg, 10^-10 to 10^-5 M) were incubated at 4° C. for 3 hours in 250 μl (in total volume) of 100 mM Tris-HCl buffer (pH=8.0), containing, 5 mM MgCl2, 1 mM EDTA and 0.1% BSA. After the incubation, the mixture, the mixture was filtered by using a glass filter (GF/F) so as to separate the membrane preparation combining with vasopressin, then washed twice with the buffer (5 ml). This glass filter was taken out and mixed with liquid scintillation cocktail. The amount of [^3 H]-vasopressin combining with the membrane was measured by a liquid scintillation counter and the rate of inhibitory effect of the test compound was calculated according to the following equation: Rate of the inhibitory
C1 : the amount of [^3 H]-vasopressin combining with the membrane in the presence of the testcompound of a known amount,
(§1) C0 : the amount of [^3 H]-vasopressin combining with the membrane in the absence of the test compound,
B1 : the amount of [^3 H]-vasopressin combining with the mebrane in the presence of the excess amount of vasopressin (10^-6 M).
The results are expressed as IC50 value, which is the concentration of the test compound required to achieve the inhibitory effect in the rate of 50%, and are shown in the following Table 157.

[2] = target: T2, V1 Recepter (rat liver plasma membrane preparations) (Rattus norvegicus, UniProt P30560); assay: V1 Recepter binding assay; settings: [3H]-Arg-vasopressin 2×10^-10 M, 37° C., 10 minutes, pH 8.0, rat liver plasma membrane
T2 construct: rat liver plasma membrane preparations; from tissue; host or cells: rat liver plasma membranes
Experimental: Test-1: V1 Recepter binding assay
By using rat liver plasma membrane preparations prepared according to Ichiraha's method [by Akira Ichihara: J. Bio. Chem., 258, 9283 (1983)], the plasma membrane (50,000 dpm, 2×10^-10 M) of [^3 H]-Arg-vasopressin and a test compound (60 μg, 10^-8 to 10^-4 M) were incubated at 37° C. for 10 minutes in 250 μl (in total volume) of 100 mM Tris-HCl buffer (pH=8.0), containing 5 mM MgCl2, 1 mM EDTA and 0.1% BSA. After the incubation, the mixture was filtered three times by using a glass filter (GF/F) so as to separate the membrane preparation by combining with vasopressin and then washed with the buffer (5 ml). This glass filter was taken out and mixed with a liquid of scintillation cocktail. The amount of [^3 H]-vasopressin combining with the membrane was measured by liquid scintillation counter and the rate of inhibitory effect of the test compound was calculated according to the following equation: […]
C1 : the amount of [^3 H]-vasopressin combining with the membrane in the presence of the test compound of a known amount,
as §1
B1 : the amount of [^3 H]-vasopressin combining with the membrane in the presence of the excess amount of vasopressin (10^-6 M).
The results are expressed as IC50 value, which is the concentration of the test compound required to achieve the inhitory effect in the rate of 50% and are shown in the following Table 156.

[3] = target: T3, Oxytocin receptor (uterin muscle membrane preparation) (Rattus norvegicus, UniProt P70536); assay: Oxytocin receptor binding assay; settings: [3H]-oxytocin 10^-9 M, 25°, one hour, pH 8.0, uterin muscle membrane, DES-treated
T3 construct: was homogenized, which was used as a membrane; from tissue; host or cells: uterine muscle membranes from diethylstilbestrol-treated animals
T3 sequence (P70536 1-388): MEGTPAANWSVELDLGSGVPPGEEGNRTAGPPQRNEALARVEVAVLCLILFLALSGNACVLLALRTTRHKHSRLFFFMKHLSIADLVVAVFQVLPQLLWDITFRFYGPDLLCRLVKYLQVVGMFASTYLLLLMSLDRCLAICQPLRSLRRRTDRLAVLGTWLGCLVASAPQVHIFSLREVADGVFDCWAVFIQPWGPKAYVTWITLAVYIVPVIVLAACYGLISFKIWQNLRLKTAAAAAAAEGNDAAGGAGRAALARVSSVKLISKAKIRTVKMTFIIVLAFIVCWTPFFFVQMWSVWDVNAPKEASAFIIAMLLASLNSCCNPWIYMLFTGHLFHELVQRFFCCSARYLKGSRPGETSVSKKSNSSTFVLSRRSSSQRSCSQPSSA
Experimental: Test-5 Oxytocin receptor binding assay
In accordance with Chan's method [by W. Y. Chan, et al.: Endocrinology, 126, 2095-2101 (1990)], the uterin muscle benn injected subcutaneously with diethylstilbe-sterol (DES) the day before and was homogenized, which was used as a membrane prepara tion. The membrane preparation (0.2 mg), [^3 H]-oxytocin (100,000 dpm, 10^-9 M), a test compound (10^-9 to 10^-5 M) were incubated at 25°. for one hour in 100 mM Tris-HCl buffer (pH=8.0, 250 μl) containing 5 mM MgCl2, 1 mM EDTA and 0.1% BSA. The mixture was filtered through a glass filter (GF/F) so as to separate the membrane preparation combining with [^3 H]-oxytocin, then, was washed twicw with the buffer (5 ml). The glass filter was put into a vial and mixed with Aquasole (a liquid scintillation cocktail). The amount of [^3 H]-oxytocin combining w ith the membrane was measured by a liquid scintillation counter. The rate of the inhibitory effect of the test compound was calculated according to the equation as follows: […]
C1 : the amount of [^3 H]-oxytocin combining with the membrane in the presence of a test compound (in known amount),
C0 : the amount of [^3 H]-oxytocin combinig with the membrane in the absence of a test compound,
B: the amount of [^3 H]-oxytocin combining with the membrane in the presence of the excess amount of oxytocin (5×10^-6 M).
The results are expressed as IC50 values, which is the concentration of the test compound required to achieve the inhibitory effect in the rate of 50%.

T2 sequence (P30560 whole entry): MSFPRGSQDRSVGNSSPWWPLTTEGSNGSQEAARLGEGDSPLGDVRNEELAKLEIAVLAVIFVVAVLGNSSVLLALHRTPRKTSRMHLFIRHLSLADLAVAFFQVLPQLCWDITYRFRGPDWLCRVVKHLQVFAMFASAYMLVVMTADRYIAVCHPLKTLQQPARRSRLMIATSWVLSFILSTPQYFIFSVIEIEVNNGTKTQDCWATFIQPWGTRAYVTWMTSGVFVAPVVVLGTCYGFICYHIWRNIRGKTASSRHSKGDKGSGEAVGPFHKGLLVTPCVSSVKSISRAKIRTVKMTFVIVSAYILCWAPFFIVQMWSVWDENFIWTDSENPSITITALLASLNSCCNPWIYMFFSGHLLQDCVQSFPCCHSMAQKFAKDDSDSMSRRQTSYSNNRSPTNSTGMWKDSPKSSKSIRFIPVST
T1 sequence (Q00788 whole entry): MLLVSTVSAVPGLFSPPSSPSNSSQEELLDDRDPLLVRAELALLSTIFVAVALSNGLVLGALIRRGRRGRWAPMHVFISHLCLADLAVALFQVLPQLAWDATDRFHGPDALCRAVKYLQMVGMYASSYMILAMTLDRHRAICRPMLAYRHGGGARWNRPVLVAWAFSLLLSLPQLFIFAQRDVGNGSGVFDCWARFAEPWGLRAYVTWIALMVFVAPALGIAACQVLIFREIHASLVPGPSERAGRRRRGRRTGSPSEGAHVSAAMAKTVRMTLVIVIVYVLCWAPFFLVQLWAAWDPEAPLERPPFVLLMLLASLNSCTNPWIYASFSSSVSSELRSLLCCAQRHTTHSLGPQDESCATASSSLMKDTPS

Question: What does the source list for COc1cc(NC(=O)c2ccccc2Cl)ccc1C(=O)N1CCCC(CC(=O)N2CCN(CCO)CC2)c2cc(Cl)ccc21 (single isomer, unassigned) [Example 85, 5-[4-(2-Hydroxyethyl)-1-piperazinyl]-carbonylmethyl-7-chloro-1-[2-methoxy-4-(2-chlorobenzoylamino)benzoyl]-2,3,4,5-tetrahydro-1H-benzoazepine]?
Answer: IC50 [1]: 8 nM; IC50 [2]: 16 nM; IC50 [3]: 94 nM

Question: What does the source list for COc1cc(NC(=O)c2ccccc2Cl)ccc1C(=O)N1CCCC(CC(=O)N2CCN(CC#N)CC2)c2cc(Cl)ccc21 (stereo not drawn) [Example 80, 5-(4-Cyanomethyl-1-piperazinyl)carbonylmethyl 7-chloro-1-[2-methoxy-4-(2-chlorobenzoylamino)benzoyl]-2,3,4,5-tetrahydro-1H-benzoazepine]?
Answer: IC50 [1]: 9 nM; IC50 [2]: 16 nM; IC50 [3]: 84 nM

Question: With C=CCN1CCN(C(=O)CC2CCCN(C(=O)c3ccc(NC(=O)c4ccccc4Cl)cc3OC)c3ccc(Cl)cc32)CC1 (stereo not drawn) [Example 81, 5-(4-Allyl-1-piperazinyl)carbonylmethyl-7-chloro-1-[2-methoxy-4-(2-chlorobenzoylamino)benzoyl]-2,3,4,5-tetrahydro-1H-benzoazepine] as the molecule, how does the IC50 [1] read?
Answer: 10 nM

Question: What about the IC50 [2] of the same molecule?
Answer: 23 nM

Question: What about the IC50 [3] of the same molecule?
Answer: 100 nM

Question: For COc1cc(NC(=O)c2ccccc2Cl)ccc1C(=O)N1CCCC(CC(=O)N2CCN(CC(O)CNC(C)C)CC2)c2cc(Cl)ccc21 (stereo not drawn) [Example 87, 5-[4-(2-Hydroxy-3-isopropylaminopropyl)-1-piperazinyl]carbonylmethyl-7-chloro-1-[2-methoxy-4-(2-chlorobenzoylamino)benzoyl]-2,3,4,5-tetrahydro-1H-benzoazepine], which IC50 [1] is on record?
Answer: 2 nM

Question: What about the IC50 [2] of the same molecule?
Answer: 7 nM

Question: And the IC50 [3]?
Answer: 70 nM

Question: Which IC50 [1] does the source give for COc1cc(NC(=O)c2ccccc2Cl)ccc1C(=O)N1CCCC(CC(=O)N(C)CCO)c2cc(Cl)ccc21 (stereo not drawn) [Example 88, 5-[N-Methyl-N-(2-hydroxyethyl)amino]-carbonylmethyl-7-chloro-1-[2-methoxy-4-(2-chlorobenzoylamino)benzoyl]-2,3,4,5-tetrahydo-1H-benzoazepine] here?
Answer: 2 nM

Question: And the IC50 [2]?
Answer: 10 nM

Question: What about the IC50 [3] of the same molecule?
Answer: 58 nM

Question: How did the IC50 [1] turn out when COc1cc(NC(=O)c2ccccc2Cl)ccc1C(=O)N1CCCC(CC(=O)N2CCCN(C)CC2)c2cc(Cl)ccc21 (stereo not drawn) [Example 125, 5-(4-Methyl-1-homopiperazinyl)carbonylmethyl-7-chloro-1-[2-methoxy-4-(2-chlorobenzoylamino)benzoyl]-2,3,4,5-tetrahydro-1H-benzoazepine] was run?
Answer: 4 nM

Question: What about the IC50 [2] of the same molecule?
Answer: 8 nM

Question: What about the IC50 [3] of the same molecule?
Answer: 37 nM

Question: With COc1cc(NC(=O)c2ccccc2Cl)ccc1C(=O)N1CCCC(CC(=O)NCc2ccccn2)c2cc(Cl)ccc21 (stereo not drawn) [Example 126, 5-(2-Pyridylmethyl)aminocarbonylmethyl-7-chlor-[2-methoxy-4-(2-chlorobenzoylamino)benzoyl]-2,3,4,5-tetrahydro-1H-benzoazepine] as the molecule, how does the IC50 [1] read?
Answer: 5 nM

Question: And the IC50 [2]?
Answer: 24 nM

Question: And the IC50 [3]?
Answer: 73 nM

Question: For COc1cc(NC(=O)c2ccccc2Cl)ccc1C(=O)N1CCCC(CC(=O)Nc2ccncc2)c2cc(Cl)ccc21 (stereo not drawn) [Example 127, 5-(4-Pyridyl)aminocarbonylmethyl-7-chloro-1-[2-methoxy-4-(2-chlorobenzoylamino)benzoyl]-2,3,4,5-tetrahydro-1H-benzoazepine], which IC50 [1] is on record?
Answer: 4 nM

Question: What about the IC50 [2] of the same molecule?
Answer: 23 nM

Question: What about the IC50 [3] of the same molecule?
Answer: 32 nM

Question: For CCN1CCN(C(=O)COC2CCCN(C(=O)c3ccc(N4CCc5ccccc5C4=O)cc3)c3ccc(Cl)cc32)CC1 (stereo not drawn) [Example 128, 5-(4-Ethyl-1-piperazinyl)carbonylmethoxy-7-chloro-1-[4-(1-oxo-1,2,3,4-tetrahydroisoquinolin-2-yl)benzoyl]-2,3,4,5-tetrahydro-1H-benzoazepine], which IC50 [1] is on record?
Answer: 13 nM

Question: What about the IC50 [2] of the same molecule?
Answer: 14 nM

Question: And the IC50 [3]?
Answer: 95 nM

Question: Which IC50 [1] does the source give for COc1cc(NC(=O)c2ccccc2Cl)ccc1C(=O)N1CCCC(CC(=O)NCCc2ccccn2)c2cc(Cl)ccc21 (stereo not drawn) [Example 130, 5-[2-(2-Pyridyl)ethyl]aminocarbonylmethyl-7-chloro-1-[2-methoxy-4-(2-chlorobenzoylamino)benzoyl]-2,3,4,5-tetrahydro-1H-benzoazepine] here?
Answer: 4 nM

Question: And the IC50 [2]?
Answer: 18 nM

Question: What about the IC50 [3] of the same molecule?
Answer: 115 nM

Question: Which results are given for CCN(CC)CCOC1CCCN(C(=O)c2ccc(N3Cc4ccccc4C3=O)cc2)c2ccc(Cl)cc21 (stereo not drawn) [Example 131, 5-(2-Diethylaminoethoxy)-7-chloro-1-[4-(1-oxoisoindolin-2-yl)benzoyl]-2,3,4,5-tetrahydro-1H-bezoazepine]?
Answer: IC50 [1]: 170 nM; IC50 [2]: 32 nM; IC50 [3]: 1790 nM

Question: How did the IC50 [1] turn out when CCN1CCN(C(=O)CCOC2CCCN(C(=O)c3ccc(N4Cc5ccccc5C4=O)cc3)c3ccc(Cl)cc32)CC1 (stereo not drawn) [Example 132, 5-(4-Ethyl-1-piperazinyl)carbonylethoxy-7-chloro-1-[4-(1-oxoisoindolin-2-yl)benzoyl]-2,3,4,5-tetrahydro-1H-benzoazepine] was run?
Answer: 120 nM

Question: And the IC50 [2]?
Answer: 90 nM

Question: What about the IC50 [3] of the same molecule?
Answer: 478 nM

Question: With CNC(=S)NCCOC1CCCN(C(=O)c2ccc(NC(=O)c3ccccc3Cl)cc2OC)c2ccc(Cl)cc21 (stereo not drawn) [Example 133, 5-(2-Methylaminothiocarbonylaminoethoxy)-7-chloro-1-[2-methoxy-4-(2-chlorobenzoylamino)benzoyl]-2,3,4,5-tetrahydro-1H-benzoazepine] as the molecule, how does the IC50 [1] read?
Answer: 49 nM

Question: And the IC50 [2]?
Answer: 20 nM

Question: And the IC50 [3]?
Answer: 72 nM

Question: Which IC50 [1] does the source give for COc1cc(NC(=O)c2ccccc2Cl)ccc1C(=O)N1CCCC(CC(=O)NCc2cnc(C)cn2)c2cc(Cl)ccc21 (stereo not drawn) [Example 134, 5-(5-Methyl-2-pyrazinyl)methylaminocarbonylmethyl-7-chloro-1-[2-methoxy-4-(2-chlorobenzoylamino)benzoyl]-2,3,4,5-tetrahydro-1H-benzoazepine] here?
Answer: 4 nM

Question: And the IC50 [2]?
Answer: 12 nM

Question: What about the IC50 [3] of the same molecule?
Answer: 96 nM

Question: For COc1cc(NC(=O)c2ccccc2Cl)ccc1C(=O)N1CCCC(OCCNC(C)=N)c2cc(Cl)ccc21 (stereo not drawn) [Example 135, 5-[2-(1-Iminoethyl)aminoethoxy]-7-chloro-1-[2-methoxy-4-(2-chlorobenzoylamino)benzoyl]-2,3,4,5-tetrahydro-1H-benzoazepine.cndot.hydrochloride], which IC50 [1] is on record?
Answer: 4.9 nM

Question: What about the IC50 [2] of the same molecule?
Answer: 18 nM

Question: And the IC50 [3]?
Answer: 146 nM
